Among the data in PubChem BioAssay AID1013 (Columbia University Molecular Screening Center, 2008) are inhibition and cell count values, retold here.

The source made the active and inactive calls. No rule for the calls is given here.

By inhibition is commonly meant the drop in the measured response relative to a control, in per cent.

One assay can be described thus: inhibitors of TNFa-induced VCAM1 expression, confirmation, imaging, TNFa stimulus, retest and dose response (AID 1013).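 As to cell count: compound on cells 1 h before TNFa then 24 h more.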 The note with it: TNFa-stimulated cells, VCAM1 expression imaging; at 2 µM; stronger effect = higher value.
In the case of `CN1C(=O)N(C)C(=O)C2(Cc3ccccc3N3CCOCC32)C1=O` (centres undefined), the inhibition is 6.4% (inactive).

Turning to `COC(=O)CSc1nc2nc(C)c(Br)cc2[nH]1`, the inhibition is -12.6% (inactive).

Consider `C=CCOC(=O)C1=C(C)OC(N)=C(C#N)C12C(=O)N(CN1CCOCC1)c1ccccc12` (centres undefined), for which the inhibition was -12.1% (inactive).

On to `COC(=O)c1c(NC(=O)c2ccc(S(=O)(=O)N3CCOCC3)cc2)sc2c1CCN(C)C2`, for which the inhibition was -5.4% (inactive).

In the case of `COc1cc2c3c(c1OC)-c1cc(O)ccc1CC3NCC2` (centres undefined), the inhibition was -7.7% (inactive).

Take `CSCCC(NC(=O)OCc1ccccc1)C(=O)O` (centres undefined): the inhibition is 6.7% (inactive).

`CCOc1ccccc1/C=N/Nc1ccccc1[N+](=O)[O-]`: the inhibition is 5.1% (inactive).

Take `CCN1C(=O)CSC1=NC12CC3CC(CC(C3)C1)C2`: the inhibition is -5.9% (inactive).

With `C/C(=N\Nc1nc2c(s1)CCCC2)c1ccccc1`, the inhibition was 3.8% (inactive).

As for `Cc1cccc(N(CC(=O)N/N=C/c2ccc(OCC(=O)NCc3ccco3)cc2)S(C)(=O)=O)c1C`, the inhibition is -4.7% (inactive).

Turning to `COc1ccc(C)cc1S(=O)(=O)Nc1cccc(SC)c1`, the inhibition was 3.5% (inactive).

For the compound `COc1ccc(CN2CCCCC2C(=O)Nc2ccc(OC)c(OCC(C)C)c2)cc1OC` (centres undefined), the inhibition was -5.8% (inactive).

On to `Cc1csc(NC(=O)CSc2nnc(-c3ccc(S(=O)(=O)N4CCCC4)cc3)o2)n1`, for which the inhibition is 12.9% (inactive).

As to `NC(=O)c1c(NC(=O)Cc2cccs2)sc2c1CCC2`, the inhibition is -16.5% (inactive).

On to `O=C(CN1CCCCCC1=O)OCc1ncc(-c2ccccc2)o1`, for which the inhibition was 9.7% (inactive).

As to `O=C(NCc1cccs1)c1nc2c(nnn2Cc2ccccc2Cl)c(=O)[nH]1`, the inhibition was 13.8% (inactive).

Turning to `Cc1cc(C)cc(OCc2nnc(SCC(=O)N3CCN(c4ccccc4)CC3)o2)c1`, the inhibition was -2% (inactive).

Take `N#Cc1c(NCc2ccccc2)ccnc1NCc1cccnc1`: the inhibition is -17.4% (inactive).

For the compound `OCCCCNc1cccc2ccccc12`, the inhibition is -3.2% (inactive).

Consider `CCOC(=O)/C(=C\c1cccnc1)C(=O)c1cc(C(C)=O)c(Nc2ccccc2)s1`, for which the inhibition was 19.8% (inactive).

Turning to `CC(=O)c1cccc(Nc2nc(-c3cccc([N+](=O)[O-])c3)cs2)c1`, the inhibition was 9.3% (inactive).

Turning to `Cc1cccc(C(=O)Oc2ccccc2C2C[C@]3(C)CC(=O)NC3N2C(=O)c2cccc(C)c2)c1` (some centres undefined), the inhibition was -2.5% (inactive).

With `Cc1cc(NC(=O)C2C3C=CC(C3)C2C(=O)O)no1` (centres undefined), the inhibition was -1.8% (inactive).

`O=C(O)c1cccc(S(=O)(=O)Nc2ccccc2Cl)c1`: the inhibition was -5.6% (inactive).

For the compound `Cn1c(SCC(=O)NC2CCCCC2)nnc1-c1cccc(N)c1`, the inhibition was 4.3% (inactive).

As to `CCOC(=O)c1cnn(-c2nc3c(C)cccc3s2)c1C`, the inhibition is 11% (inactive).

As for `COc1cccc(/C=N/Nc2nc(Nc3ccccc3)nc(-n3nc(C)cc3C)n2)c1O`, the inhibition was -11.8% (inactive).

Regarding `O=C(c1cc(-c2ccncc2)nc2ccc(Br)cc12)N1CCN(c2ccccn2)CC1`, the inhibition is 1.3% (inactive).

For the compound `O=C(c1ccc2c(c1)ncn2C1CCCCC1)N1CCC2(CC1)OCCO2`, the inhibition was 4.9% (inactive).

On to `CCCOC(=O)c1ccc(NC(=O)Oc2ccccc2)cc1`, for which the inhibition was -2.5% (inactive).

In the case of `CC(=O)c1cccc(S(=O)(=O)N2CCC(n3nnc4cc(F)ccc43)CC2)c1`, the inhibition was 3.2% (inactive).

For `O=S(=O)(c1ccc2c(c1)OCCCO2)N1CCNCC1`, the inhibition is 0.5% (inactive).

With `COc1ccc(-c2nc(-c3ccc(NC(=O)c4ccc(Br)o4)cc3)no2)cc1OC`, the inhibition was 11.9% (inactive).

Turning to `COC(=O)c1sccc1NC(=O)c1ccc(Br)s1`, the inhibition is 4% (inactive).

As to `Cc1ccccc1Cn1nc(C)c(NC(=O)c2cc(-c3cccs3)on2)c1C`, the inhibition was -4.7% (inactive).

On to `CCC(=O)Nc1cccc(C(=O)/C=C/c2cc(Br)ccc2OC)c1`, for which the inhibition was 10% (inactive).

As for `c1ccc(-c2nnc(CSc3nncs3)o2)cc1`, the inhibition was -12% (inactive).

With `CCC(=O)N1c2ccc(S(=O)(=O)CCC(=O)N3CCn4c3nc3ccccc34)cc2CC1C` (centres undefined), the inhibition was -14.1% (inactive).

As for `COc1ccc(-c2cc(C(=O)Nc3cc(C)n(Cc4ccc(Cl)cc4)n3)no2)cc1OC`, the inhibition was 11.7% (inactive).

Take `COc1ccc(NC(=O)N2CCn3c2nc2ccccc23)cc1`: the inhibition is 13% (inactive).

For the compound `Cc1cc(C)n(-c2nc(-c3cccc(Cl)c3)cs2)n1`, the inhibition was 2.2% (inactive).

With `CCOC(=O)c1ccc(N2C(=O)CC(N3CCC(O)(c4ccc(Br)cc4)CC3)C2=O)cc1` (centres undefined), the inhibition is -13.9% (inactive).

For the compound `O=C(Oc1ccc2ccc(=O)oc2c1)N1CCOCC1`, the inhibition was 1.4% (inactive).

`CCOC(=O)C1=C(c2ccccc2)OC(N)=C(C#N)C1c1ccco1` (centres undefined): the inhibition was 13.3% (inactive).

`COc1ccc2c(c1)CCc1c(C(=O)N3CC4(C)CC3CC(C)(C)C4)noc1-2` (centres undefined): the inhibition was -14.4% (inactive).

Turning to `CCC(=O)Nc1cccc(NC(=O)c2cc3ccccc3o2)c1`, the inhibition was -3.1% (inactive).

As for `O=C(NCc1ccco1)C1CC(=O)N(c2ccc(F)cc2)C1` (centres undefined), the inhibition was 6% (inactive).

With `O=C(Nc1ncc2c(n1)CC(c1ccco1)CC2=O)c1ccc(Cl)cc1` (centres undefined), the inhibition was -0.3% (inactive).

In the case of `Cn1nc(C(=O)NCC2CCCO2)c2ccccc2c1=O` (centres undefined), the inhibition is -9% (inactive).

In the case of `CCn1c(SCC(=O)Nc2ccc(C(=O)OC)cc2)nnc1-c1cccs1`, the inhibition was 10.1% (inactive).

Turning to `CCCc1[nH]nc2c1C(c1cccnc1)C(C#N)=C(N)O2` (centres undefined), the inhibition is -7.9% (inactive).

Regarding `Cc1ccc(S(=O)(=O)Nc2cc(C(=O)NCCN3CCCC3)ccc2N2CCCCC2)cc1`, the inhibition is -2.2% (inactive).

On to `O=C(Cn1cccc1C(=O)c1ccccc1)NCCN1CCOCC1`, for which the inhibition was -13.5% (inactive).

As to `C=CCn1c(N)c(C(=O)OCC(C)C)c2nc3ccccc3nc21`, the inhibition is -3.5% (inactive).

Take `CC(=O)Nc1nc2cc3c(cc2s1)OCO3`: the inhibition is -1.4% (inactive).

As for `O=C(O)c1c[nH]c2ccc(S(=O)(=O)N3CCOCC3)cc12`, the inhibition was 1.4% (inactive).

In the case of `COc1ccc(Nc2nc(N3CCCC3)nc3ccccc23)c(OC)c1`, the inhibition was 12.2% (inactive).

On to `CC(CCc1ccccc1)NC(=O)c1ccc(Br)o1` (centres undefined), for which the inhibition was -4.5% (inactive).

In the case of `CCOc1ccccc1N1CCN(C(=O)c2cccc(-c3ccc(O)cc3)c2)CC1`, the inhibition was -6.4% (inactive).

Take `CC1CCN(C(=O)C2c3ccccc3C(=O)N3CCc4ccccc4C23)CC1` (centres undefined): the inhibition was 3.6% (inactive).

Turning to `O=C1CC(c2cc(Br)ccc2F)c2cc3c(cc2N1)CCC3` (centres undefined), the inhibition was 24.3% (inactive).

As to `Cc1ccc(NC(=O)c2oc3c(c2C)C(=O)CC(C)(C)C3)cc1`, the inhibition is -0.4% (inactive).

As to `C=CCCCOc1ccc(C(=O)O)cc1`, the inhibition is 8.3% (inactive).

Take `Cc1ccc(N/N=C/c2ccc(N3CCOCC3)cc2)cc1C`: the inhibition was -4.8% (inactive).

Turning to `Cn1cc([N+](=O)[O-])c(C(=O)Nc2ccc3c(c2)OCCO3)n1`, the inhibition was 10.7% (inactive).

In the case of `CCCn1c(SCC(=O)NCc2ccco2)nnc1C(C)C`, the inhibition was -9.8% (inactive).

Regarding `NC(=S)N/N=C/c1ccc(-c2cc(Cl)ccc2Cl)o1`, the inhibition is 34.6% (inactive).

Regarding `CCOC(=O)C1=C(CSc2nc3c(cc2C#N)CN(C)CC3)OC(N)=C(C#N)C1c1ccccc1` (centres undefined), the inhibition is -5.4% (inactive).

On to `Cc1nn(-c2cc(C)c3ccccc3n2)c2c1C1C(C2)C1(C)C` (centres undefined), for which the inhibition was -11.4% (inactive).

As for `CC(C)c1nnc(NC(=O)CCC(=O)N2CCN(C3CCCCC3)CC2)s1`, the inhibition is 2.9% (inactive).

For the compound `CCN(CC)S(=O)(=O)c1ccc(NC(=O)C(C)N(c2ccc(OC)cc2)S(C)(=O)=O)cc1` (centres undefined), the inhibition was -3.6% (inactive).

For `COc1ccc(/C=N/NC(=O)c2ccccc2Cl)cc1CSc1nc2ccccc2s1`, the inhibition was 13.7% (inactive).

As to `COc1ccc(-c2c/c(=N\c3nc(-c4ccccc4)c(C)s3)c3ccccc3o2)cc1O`, the inhibition was 34.3% (inactive).

On to `CCN1CCC2(CC1)C(C#N)=C(N)Oc1c2sc2nc(C)cc(C)c12`, for which the inhibition is -4.5% (inactive).

With `CC(Sc1nc(N)cc(=O)[nH]1)C(=O)NC1CCCCC1` (centres undefined), the inhibition is -7.6% (inactive).

As for `COc1ccc(C(C)(C)C)cc1S(=O)(=O)N1CCN(C)CC1`, the inhibition is -3.3% (inactive).

As to `CSc1nc2nccc(-c3ccc(Oc4ccccc4)cc3)n2n1`, the inhibition is -5.9% (inactive).

For `CCCc1cc(=O)[nH]c(SCC(=O)Nc2nonc2N)n1`, the inhibition is 9.8% (inactive).

In the case of `C=CC(=O)Nc1ccc(Br)cc1`, the inhibition is -8.4% (inactive).

As for `COc1ccc(Cl)c(NC(=O)Nc2c(C)n(-c3ccccc3)c(=O)n2C)c1`, the inhibition is -17.4% (inactive).

Consider `C=CCn1c(SCC(=O)Nc2ccc(C(=O)OCC)cc2)nnc1-c1sc(N)nc1C`, for which the inhibition is 9.5% (inactive).

Regarding `COc1ccc(CC(=O)OCc2cc3ccc(C)cc3[nH]c2=O)cc1`, the inhibition was 6.4% (inactive).

Take `Cc1ccc(OCc2ccoc2C(=O)O)cc1C`: the inhibition is 2.2% (inactive).

As for `Cc1nnc(SCc2cn3ccsc3n2)n(N)c1=O`, the inhibition was -9.6% (inactive).

Consider `O=C(O)c1cc2nc3c(c(C(F)(F)F)n2n1)CCc1ccccc1-3`, for which the inhibition is 4.4% (inactive).

Turning to `CCOc1cc(/C=C2/C(=O)N(c3ccccc3)N=C2C)ccc1OC(=O)c1ccco1`, the inhibition is 3.9% (inactive).

As to `CSc1ccc(CNC2CN3CCC2CC3)cc1` (centres undefined), the inhibition was 6.9% (inactive).

The same assay, now with this note: TNFa-stimulated cells, VCAM1 expression imaging; cell count; at 10 µM; stronger effect = lower value.
The compound `NC(=S)N/N=C/c1ccc(-c2cc(Cl)ccc2Cl)o1` showed a cell count of 90.8%.

Take `COc1ccc(-c2c/c(=N\c3nc(-c4ccccc4)c(C)s3)c3ccccc3o2)cc1O`: the cell count worked out at 98%.
